In paper PMC5741723, “Residues His172 and Lys238 are Essential for the Catalytic Activity of the Maleylacetate Reductase from Sphingobium chlorophenolicum Strain L-1” (Scientific Reports, 2017):

Columns and labels:
[1] = molecular target: T1, maleylacetate reductase (PcpE) (Sphingobium chlorophenolicum, UniProt F6F233); assay: surface plasmon resonance; assay type: binding; conditions: PcpE immobilised by amine coupling; PBS-T, 5% DMSO, pH 7.4; n = 5
T1 construct: gene Sphch_4020; full length, 352 residues; recombinant His6-tagged, tag kept (SPR); mutants in pET30a(+) NdeI/XhoI, E. coli BL21-AI

[2] = molecular target: T1, maleylacetate reductase (PcpE); assay: inhibition of MA reduction, NADH loss at […] nm; assay type: biochemical; conditions: 360 µM NADH, 400 µM MA, 20 mM Tris-HCl pH 7.0

T1 sequence (F6F233 entry or part of it): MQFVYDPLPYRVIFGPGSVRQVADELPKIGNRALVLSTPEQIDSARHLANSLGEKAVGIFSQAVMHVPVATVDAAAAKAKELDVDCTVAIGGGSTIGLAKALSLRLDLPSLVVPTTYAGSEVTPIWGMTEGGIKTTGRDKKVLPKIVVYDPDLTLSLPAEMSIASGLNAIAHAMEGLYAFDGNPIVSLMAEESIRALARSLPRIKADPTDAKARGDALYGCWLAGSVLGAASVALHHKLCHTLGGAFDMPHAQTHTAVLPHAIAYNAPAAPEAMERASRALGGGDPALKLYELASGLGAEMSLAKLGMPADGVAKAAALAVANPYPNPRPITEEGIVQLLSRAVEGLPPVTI

Oc1c(Cl)c(Cl)c(Cl)c(Cl)c1Cl [PCP, pentachlorophenol]
Kd [1]: 12.8 ± 0.2 µM | % catalytic activity remaining at 5 μM [2]: ~ 30%
